The subject of data set [1] is all tested strains, either Gram-positive or Gram-negative pathogens. Also noted: method as in doi:10.1016/j.cclet.2016.12.012, doi:10.1515/hc-2016-0125. As to conditions: reference drug; cited from earlier work.
In data set [2] the test system is Gram-negative pathogens. Also noted: method as in doi:10.1016/j.cclet.2016.12.012, doi:10.1515/hc-2016-0125. As to conditions: cited from earlier work.
For data set [3], the system named is Gram-positive pathogens. Also noted: method as in doi:10.1016/j.cclet.2016.12.012, doi:10.1515/hc-2016-0125. As to conditions: cited from earlier work.
Data set [4] relates to fluoroquinolones, vancomycin, and/or linezolid-resistant strains. As to conditions: cited from earlier work.
For data set [5], the system named is Gram negative and Gram positive. Also noted: method as in PMID 14623004. As to conditions: cited from earlier work.
The test system of data set [6] is tested bacterial strains (Gram positive or Gram negative: S. aureus, P. aeruginosa, E. coli). The data set is described as follows: Antibacterial MIC range over the tested bacterial strains. Type of data set: cell-based. As to conditions: range over Gram positive and Gram negative strains. As for the experimental part: (§1) . Standard strains of Staphylococcus aureus (ATCC 6538), Pseudomonas aeruginosa (ATCC 10,145), and Escherichia coli (ATCC 8739) were obtained from microbiological resource center, Faculty of Agriculture, Ain Shams University, Cairo, Egypt. All isolates were maintained at -70 °C in Trypticase Soya Broth (TSB, Becton, and Dickinson) with 10% glycerol. Prior to inoculation, all isolates were subcultured at 37 °C for 24 h on Trypticase Soya Agar (TSA, Becton, and Dickinson) and TSB, respectively.
The plates were rotated slowly to ensure uniform distribution of the microorganisms and then allowed to solidify on a flat surface. After solidification, four equidistant and circular wells of 10 mm diameter were carefully punched using a sterile cork bore. Twofold serial dilutions of the tested compounds using DMSO were performed. An equal volume of 100µL of each dilution was applied separately to each well in three replicates using a micropipette. All plates were incubated at 37 °C for 24 h. The inhibition zones were measured, and their average was calculated. The MIC was calculated by plotting the natural logarithm of the concentration of each dilution of the tested compounds against the square of zones of inhibition, and a regression line was drawn through the points then the antilogarithm of the intercept on the logarithm of concentration axis gave the MIC value.

The subject of data set [7] is C. albicans (ATCC 10,231). The data set is described as follows: Antifungal MIC, agar cup diffusion method. Format: cell-based, Candida albicans. As to conditions: Candida albicans, ATCC 10,231, 24 h, Sabouraud agar, 37 °C, read-out: MIC C. albicans (Fungi). How it is done: The antibacterial and antifungal activities of compounds, ketone 1, 2a-j, and 5a-i were evaluated in vitro against S. aureus (ATCC 6538), P. aeruginosa (ATCC 10,145), E. coli (ATCC 8739), and C. albicans (ATCC 10,231). […] The antifungal activity of compounds 1, 2a-j, and 5a-i and ketoconazole were determined according to the agar cup diffusion method at Deraya University, Faculty of Pharmacy, Department of Microbiology.
Fungal strains and culture conditions. […] Standard strain of Candida albicans (ATCC 10,231) was obtained from microbiological resource center, Faculty of Agriculture, Ain Shams University, Cairo, Egypt. The isolate was maintained at -70 °C in Trypticase Soya Broth (TSB, Becton, and Dickinson) with 10% glycerol. Prior to inoculation, the isolate was subcultured at 37 °C for 24 h on Trypticase Soya Agar (TSA, Becton, and Dickinson) and TSB, respectively.
(§2) The plates were rotated slowly to ensure uniform distribution of the microorganisms and then allowed to solidify on a flat surface. After solidification, four equidistant and circular wells of 10 mm diameter were carefully punched using a sterile cork bore. Twofold serial dilutions of the tested compounds using DMSO were performed. An equal volume of 100µL of each dilution was applied separately to each well in three replicates using a micropipette. All plates were incubated at 37 °C for 24 h. The inhibition zones were measured, and their average was calculated.

Data set [8] deals with S. aureus DNA gyrase (Staphylococcus aureus, UniProt P0A0K8+P20831). The data set is described as follows: Staphylococcus aureus DNA gyrase supercoiling assay. Type of data set: biochemical. As to conditions: supercoiling of relaxed pBR322, 37 °C, 30 min; read-out: S. aureus DNA gyrase IC50 ± SD. How it is done: As antibacterial agents, fluoroquinolones act by targeting and inhibiting DNA gyrase (topo II) which is an essential enzyme involved in the DNA replication process.
Sequence of S. aureus DNA gyrase (P20831 whole entry): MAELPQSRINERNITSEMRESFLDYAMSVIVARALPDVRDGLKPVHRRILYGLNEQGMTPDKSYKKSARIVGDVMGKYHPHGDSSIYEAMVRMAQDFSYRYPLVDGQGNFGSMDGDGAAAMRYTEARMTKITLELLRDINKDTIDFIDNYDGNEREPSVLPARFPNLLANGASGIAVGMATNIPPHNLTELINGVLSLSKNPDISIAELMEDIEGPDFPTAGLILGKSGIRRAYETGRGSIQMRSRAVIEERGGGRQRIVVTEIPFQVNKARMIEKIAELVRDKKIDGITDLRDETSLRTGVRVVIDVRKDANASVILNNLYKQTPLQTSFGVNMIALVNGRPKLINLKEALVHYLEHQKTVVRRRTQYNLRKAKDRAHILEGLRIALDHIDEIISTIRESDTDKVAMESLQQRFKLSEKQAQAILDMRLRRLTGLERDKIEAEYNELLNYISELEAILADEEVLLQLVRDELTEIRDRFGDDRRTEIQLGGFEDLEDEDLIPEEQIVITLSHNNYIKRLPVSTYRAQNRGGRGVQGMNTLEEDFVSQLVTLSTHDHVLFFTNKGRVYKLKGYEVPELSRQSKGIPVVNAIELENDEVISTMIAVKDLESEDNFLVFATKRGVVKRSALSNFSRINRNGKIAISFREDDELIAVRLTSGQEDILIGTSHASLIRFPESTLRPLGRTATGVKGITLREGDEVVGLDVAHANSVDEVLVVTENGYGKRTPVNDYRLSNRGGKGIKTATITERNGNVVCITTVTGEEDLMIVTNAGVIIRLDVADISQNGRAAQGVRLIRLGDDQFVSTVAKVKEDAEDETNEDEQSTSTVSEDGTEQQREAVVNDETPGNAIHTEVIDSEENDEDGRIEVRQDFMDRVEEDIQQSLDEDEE
Sequence of S. aureus DNA gyrase (P0A0K8 whole entry): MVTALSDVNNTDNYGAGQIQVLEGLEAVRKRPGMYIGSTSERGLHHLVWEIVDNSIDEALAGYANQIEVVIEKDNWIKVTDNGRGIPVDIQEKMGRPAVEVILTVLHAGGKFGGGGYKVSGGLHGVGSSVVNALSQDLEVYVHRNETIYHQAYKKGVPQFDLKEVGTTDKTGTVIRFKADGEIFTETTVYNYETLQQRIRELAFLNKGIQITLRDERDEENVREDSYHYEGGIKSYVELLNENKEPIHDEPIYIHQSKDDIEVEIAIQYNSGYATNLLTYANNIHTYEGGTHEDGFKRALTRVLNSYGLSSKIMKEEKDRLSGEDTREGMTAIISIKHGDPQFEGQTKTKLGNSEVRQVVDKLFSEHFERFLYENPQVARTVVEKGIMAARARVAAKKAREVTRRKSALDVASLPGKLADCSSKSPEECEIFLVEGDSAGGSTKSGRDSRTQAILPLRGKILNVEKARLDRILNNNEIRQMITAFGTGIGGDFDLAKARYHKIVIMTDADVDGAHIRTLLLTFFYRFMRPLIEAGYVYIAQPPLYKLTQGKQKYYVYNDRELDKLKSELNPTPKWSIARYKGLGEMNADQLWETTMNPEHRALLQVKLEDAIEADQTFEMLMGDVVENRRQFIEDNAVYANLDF
Staphylococcus aureus DNA gyrase was incubated at 37 °C for 30 min in a total reaction volume of 30 μl containing 40 mM HEPES. KOH (pH 7.6), 10 mM magnesium acetate, 10 mM DTT, 2 mM ATP, 500 mM potassium glutamate, 0.05 mg/ml albumin and Relaxed pBR322. DNA gyrase supercoiling reactions catalyzed by S. aureus gyrase, Stop reaction by adding 30 μL of STEB and 30 μL of chloroform/isoamyl alcohol (v:v, 24:1),and then Vortex briefly ~ 5 secs and centrifuge for 1 min. after which 20 µL of this was loaded on a 1% agarose gel that was then run at ~ 75 V for approximately 2 h. The gel was stained by (0.5 mg/L) ethidium bromide in water. Fluorescent images were taken at a wavelength of 300 nm on a UV transilluminator imaging system. The fluorescence intensity of the supercoiled plasmid reaction product was quantitated using ImagQuant software (Molecular Dynamics).

The subject of data set [9] is E. coli (ATCC 8739). The data set is described as follows: Antibacterial MIC, standard agar cup diffusion method. Format: cell-based. As to conditions: Escherichia coli, ATCC8739, 37 °C, 24 h, read-out: MIC E. coli (Gram-negative). As for the experimental part: as §1, with “The antibacterial and antifungal activities of compounds, ketone 1, 2a-j, and 5a-i were evaluated in vitro against S. aureus (ATCC 6538), P. aeruginosa (ATCC 10,145), E. coli (ATCC 8739), and C. albicans (ATCC 10,231). […] Standard” for “. Standard”
as §2

Data set [10] deals with P. aeruginosa (ATCC 10,145). Described as above. Format: cell-based. As to conditions: Pseudomonas aeruginosa, ATCC 10145, 37 °C, 24 h, read-out: MIC P. aeruginosa (Gram-negative). As for the experimental part:
as §1, with “The antibacterial and antifungal activities of compounds, ketone 1, 2a-j, and 5a-i were evaluated in vitro against S. aureus (ATCC 6538), P. aeruginosa (ATCC 10,145), E. coli (ATCC 8739), and C. albicans (ATCC 10,231). […] Standard” for “. Standard”
as §2

Data set [11] relates to S. aureus (ATCC 6538). The data set is described as follows: Antibacterial MIC, standard agar cup diffusion method. As to conditions: Staphylococcus aureus, ATCC6538, 37 °C, 24 h, read-out: MIC S. aureus (Gram-positive). Type of data set: cell-based, Staphylococcus aureus. As for the experimental part: as §1, with “The antibacterial and antifungal activities of compounds, ketone 1, 2a-j, and 5a-i were evaluated in vitro against S. aureus (ATCC 6538), P. aeruginosa (ATCC 10,145), E. coli (ATCC 8739), and C. albicans (ATCC 10,231). […] Standard” for “. Standard”
as §2

Values after ≈ are worked out from the molar mass of the structure shown. Where only a bound is given, the exact number is not on record here.

Consider `CC1(C)S[C@@H]2[C@H](NC(=O)[C@H](N)c3ccccc3)C(=O)N2[C@H]1C(=O)O` [ampicillin], for which the MIC in [1] is 3.9 to 250 µg/mL.

Consider `COc1cccc(-c2nn(CN3CCN(c4cc5c(cc4F)c(=O)c(C(=O)O)cn5C4CC4)CC3)c(=S)n2Cc2ccc(Br)cc2Cl)c1` [hybrid I], for which the values for the MIC in data set [2] and in data set [3] were 0.01 to 1.32 µg/mL and less than 0.24 µg/mL, respectively.

In the case of `CC(=O)NC[C@H]1CN(c2ccc(N3CCN(c4cc5c(cc4F)c(=O)c(C(=O)O)cn5C4CC4)CC3)c(F)c2)C(=O)O1` [hybrid II], the MIC range is 0.25 to 0.5 µg/mL in data set [4] and 0.125 to 4 µg/mL in [5].

`N#Cc1c(-c2ccccc2)nc(SCC(=O)N2CCN(c3cc4c(cc3F)c(=O)c(C(=O)O)cn4C3CC3)CC2)[nH]c1=O` [Compound 5a, 7-(4-(2-((5-Cyano-6-oxo-4-phenyl-1,6-dihydropyrimidin-2-yl)thio)acetyl)piperazin-1-yl)-1-cyclopropyl-6-fluoro-4-oxo-1,4-dihydroquinoline-3-carboxylic acid] returned a melting point of 237 to 240 °C. In data set [6], the “MIC range against the tested bacterial strains” value fell in the range of 0.06 to 1.53 µg/mL. Also, in data set [7], the MIC stood at 6.23 µg/mL (≈ 10.4 µM). Moreover, the IC50 in data set [8] is 4.55 ± 0.24 µM. For the same compound, in data set [9], the MIC came to 0.91 µg/mL (≈ 1.52 µM). In addition, the MIC in data set [10] was 1.53 µg/mL (≈ 2.55 µM). Further, in data set [11], the MIC was 0.36 µg/mL (≈ 0.599 µM).

The values above are taken from PMC10415461 (Molecular Diversity, 2022).
